What follows are compounds tested on H460 cells (assay: Proliferation assay in H460 cells (2 hr exposure, AlamarBlue)). Conditions: 2 hrs exposure, wash, 70 hrs growth, read-out: IC 50 in proliferation assay in H460 cells.
Type: cell-based, human
Experimental: In vitro proliferation data on the H460 […] human tumor cell line is reported above in the compound table.
Specifically, exponentially growing cells were seeded at a density of 4×10^3 cells per well in a 96 well plate and incubated at 37° C. in 5% CO2, 95% air and 100% relative humidity for 24 hours prior to addition of test compounds. Compounds were solubilized in 100% DMSO at 200 times the desired final test concentration. At the time of drug addition, compounds were further diluted to 4 times the desired final concentration with complete medium. Aliquots of 50 μl of compound at specified concentrations were added to microtiter wells already containing 150 μl of medium, resulting in the final drug concentration reported. After drug addition, the plates were incubated for an additional 2 hours at 37° C., 5% CO2, 95% air, and 100% relative humidity, then the drug was washed off and fresh medium was added and the plates were incubated for addition 70 hrs at 37° C., 5% CO2, 95% air and 100% relative humidity. At the end of this incubation, the viable cells were quantified using the AlamarBlue assay. The drug concentration resulting in growth inhibition of 50% (IC50) was calculated using Prism software (Irvine, Calif.), and the results were listed in the table.

SMILES	IC50 [nM]
CC(OP(=O)(N1CC1)N1CC1)c1ccc([N+](=O)[O-])c(Oc2cccc([N+](=O)[O-])c2)c1 (stereo not drawn) [Compound 2942]	20

Same assay, conditions: Homo sapiens, NCI-H460, 2 hrs exposure, wash, 70 hrs growth, read-out: IC 50 in proliferation assay in H460 cells

SMILES	IC50 [nM]
CC(OP(=O)(N1CC1)N1CC1)c1ccc([N+](=O)[O-])c(Oc2c(F)cccc2F)c1 (stereo not drawn) [Compound 2932]	20
O=[N+]([O-])c1ccc(COP(=O)(N2CC2)N2CC2)cc1Oc1ccccc1-c1ccccc1 [Compound 3029]	600
O=[N+]([O-])c1ccc(COP(=O)(N2CC2)N2CC2)cc1Oc1ccc2ocnc2c1 [Compound 2915]	90
CCOC(=O)c1ccc(Oc2cc(C(C)OP(=O)(N3CC3)N3CC3)ccc2[N+](=O)[O-])cc1 (stereo not drawn) [Compound 2853]	< 5
CC(OP(=O)(N1CC1)N1CC1)c1ccc([N+](=O)[O-])c(Oc2cccc(C(=O)N3CCCC3)c2)c1 (stereo not drawn) [Compound 2984]	5
CC(OP(=O)(N1CC1)N1CC1)c1ccc([N+](=O)[O-])c(Oc2ccc(C(N)=O)cc2)c1 (stereo not drawn) [Compound 2923]	20
O=[N+]([O-])c1ccc(COP(=O)(N2CC2)N2CC2)cc1Oc1cccc2ccccc12 [Compound 2966]	200
CNC(=O)c1ccc(Oc2cc(COP(=O)(N3CC3)N3CC3)ccc2[N+](=O)[O-])cc1 [Compound 2940]	5
CCOC(=O)c1cccc(Oc2cc(C(C)OP(=O)(N3CC3)N3CC3)ccc2[N+](=O)[O-])c1 (stereo not drawn) [Compound 2854]	< 5
CC(OP(=O)(N1CC1)N1CC1)c1ccc([N+](=O)[O-])c(Oc2cccc(S(C)(=O)=O)c2)c1 (stereo not drawn) [Compound 2950]	40
O=[N+]([O-])c1ccc(COP(=O)(N2CC2)N2CC2)cc1Oc1cccnc1 [Compound 2877]	20
O=[N+]([O-])c1ccc(COP(=O)(N2CC2)N2CC2)cc1Oc1ccccn1 [Compound 2875]	3200
CC(OP(=O)(N1CC1)N1CC1)c1ccc([N+](=O)[O-])c(Oc2ccc(Cl)cc2Cl)c1 (stereo not drawn) [Compound 2864]	20
CC(OP(=O)(N1CC1)N1CC1)c1ccc([N+](=O)[O-])c(Oc2ccccn2)c1 (stereo not drawn) [Compound 2874]	500
O=[N+]([O-])c1ccc(COP(=O)(N2CC2)N2CC2)cc1Oc1ccc2ncccc2c1 [Compound 2971]	3
CC(OP(=O)(N1CC1)N1CC1)c1ccc(Oc2ccccc2)c([N+](=O)[O-])c1 (stereo not drawn) [Compound 2906, reference compound]	4000
O=[N+]([O-])c1ccc(COP(=O)(N2CC2)N2CC2)cc1Oc1ccc(F)nc1 [Compound 2892]	2
CC(OP(=O)(N1CC1)N1CC1)c1ccc([N+](=O)[O-])c(Oc2cccc(C(=O)N3CCS(=O)(=O)CC3)c2)c1 (stereo not drawn) [Compound 2993]	20
NS(=O)(=O)c1ccc(Oc2cc(COP(=O)(N3CC3)N3CC3)ccc2[N+](=O)[O-])cc1 [Compound 2887]	200
CC(OP(=O)(N1CC1)N1CC1)c1ccc([N+](=O)[O-])c(Oc2ccc(-c3nccs3)cc2)c1 (stereo not drawn) [Compound 2898]	10
CC(OP(=O)(N1CC1)N1CC1)c1ccc([N+](=O)[O-])c(Oc2ccc(S(=O)(=O)Nc3ccc(F)cc3)cc2)c1 (stereo not drawn) [Compound 2916]	120
CC(OP(=O)(N1CC1)N1CC1)c1ccc([N+](=O)[O-])c(Oc2nc3ccccc3s2)c1 (stereo not drawn) [Compound 2878]	4400

SMILES	IC50 [nM]
CC(OP(=O)(N1CC1)N1CC1)c1ccc([N+](=O)[O-])c(Oc2ccc(C(C)(C)C)cc2)c1 (stereo not drawn) [Compound 3034]	8
CNC(=O)c1ccccc1Oc1cc(COP(=O)(N2CC2)N2CC2)ccc1[N+](=O)[O-] [Compound 2939]	2700
CS(=O)(=O)c1cccc(Oc2cc(COP(=O)(N3CC3)N3CC3)ccc2[N+](=O)[O-])c1 [Compound 2951]	20
CC(OP(=O)(N1CC1)N1CC1)c1ccc([N+](=O)[O-])c(Oc2ccccc2S(C)(=O)=O)c1 (stereo not drawn) [Compound 2980]	3000
CC(OP(=O)(N1CC1)N1CC1)c1ccc([N+](=O)[O-])c(Oc2ccccc2Cl)c1 (stereo not drawn) [Compound 2862]	40
Cc1ccccc1-c1ccc(Oc2cc(COP(=O)(N3CC3)N3CC3)ccc2[N+](=O)[O-])cc1 [Compound 3033]	1
Cn1ncc2ccc(Oc3cc(COP(=O)(N4CC4)N4CC4)ccc3[N+](=O)[O-])cc21 [Compound 2918]	3
O=[N+]([O-])c1ccc(COP(=O)(N2CC2)N2CC2)c(Oc2ccccc2)c1 [Compound 2960]	1600
CC(OP(=O)(N1CC1)N1CC1)c1ccc([N+](=O)[O-])c(Oc2ccc3c(c2)ncn3C)c1 (stereo not drawn) [Compound 2920]	20
CC(OP(=O)(N1CC1)N1CC1)c1ccc([N+](=O)[O-])c(Oc2ccc3c(cnn3C)c2)c1 (stereo not drawn) [Compound 2919]	4
CN(C(=O)c1ccc(Oc2cc(COP(=O)(N3CC3)N3CC3)ccc2[N+](=O)[O-])cc1)c1ccccc1 [Compound 2974]	1
CC(OP(=O)(N1CC1)N1CC1)c1ccc([N+](=O)[O-])c(Oc2ccc(S(N)(=O)=O)cc2)c1 (stereo not drawn) [Compound 2880]	100
CC(OP(=O)(N1CC1)N1CC1)c1ccc([N+](=O)[O-])c(Oc2cccc3cnccc23)c1 (stereo not drawn) [Compound 2945]	50
CC(OP(=O)(N1CC1)N1CC1)c1ccc([N+](=O)[O-])c(Oc2ccc([N+](=O)[O-])cc2)c1 (stereo not drawn) [Compound 2935]	20
O=[N+]([O-])c1ccc(COP(=O)(N2CC2)N2CC2)cc1Oc1ccc(-c2nccs2)cc1 [Compound 2899]	4
O=[N+]([O-])c1ccc(COP(=O)(N2CC2)N2CC2)cc1Oc1ccc2cccnc2c1 [Compound 2970]	40
O=[N+]([O-])c1ccc(COP(=O)(N2CC2)N2CC2)cc1Oc1cccc2ncccc12 [Compound 2967]	100
CC(OP(=O)(N1CC1)N1CC1)c1ccc([N+](=O)[O-])c(Oc2cccc(C(=O)N3CCOCC3)c2)c1 (stereo not drawn) [Compound 2972]	10
CC(OP(=O)(N1CC1)N1CC1)c1ccc([N+](=O)[O-])c(Oc2ccc(NS(C)(=O)=O)cc2)c1 (stereo not drawn) [Compound 2912]	40
CNS(=O)(=O)c1ccc(Oc2cc(COP(=O)(N3CC3)N3CC3)ccc2[N+](=O)[O-])cc1 [Compound 2903]	30
CC(OP(=O)(N1CC1)N1CC1)c1ccc([N+](=O)[O-])c(Oc2cncnc2)c1 (stereo not drawn) [Compound 2925]	40
O=[N+]([O-])c1ccc(COP(=O)(N2CC2)N2CC2)cc1Oc1ccc(-c2ccncc2)cc1 [Compound 3050]	10

SMILES	IC50 [nM]
CC(OP(=O)(N1CC1)N1CC1)c1ccc([N+](=O)[O-])c(Oc2cnc3ccccc3c2)c1 (stereo not drawn) [Compound 2956]	4
CC(OP(=O)(N1CC1)N1CC1)c1ccc([N+](=O)[O-])c(Oc2ccccc2C(=O)N(C)C)c1 (stereo not drawn) [Compound 2885]	3700
CC(OP(=O)(N1CC1)N1CC1)c1ccc([N+](=O)[O-])c(Oc2ccc(C(=O)N(C)c3ccccc3)cc2)c1 (stereo not drawn) [Compound 2978]	2
CC(OP(=O)(N1CC1)N1CC1)c1ccc([N+](=O)[O-])c(Oc2ccc3c(c2)OCO3)c1 (stereo not drawn) [Compound 2866]	20
O=[N+]([O-])c1ccc(COP(=O)(N2CC2)N2CC2)cc1Oc1ccc(C(F)(F)F)cc1 [Compound 3037]	1
CNS(=O)(=O)c1ccc(Oc2cc(C(C)OP(=O)(N3CC3)N3CC3)ccc2[N+](=O)[O-])cc1 (stereo not drawn) [Compound 2902]	90
CC(OP(=O)(N1CC1)N1CC1)c1ccc([N+](=O)[O-])c(Oc2cccc3ccccc23)c1 (stereo not drawn) [Compound 2954]	100
Cc1ccccc1-c1ccc(Oc2cc(C(C)OP(=O)(N3CC3)N3CC3)ccc2[N+](=O)[O-])cc1 (stereo not drawn) [Compound 3032]	3
Cc1ccc(Oc2cc(COP(=O)(N3CC3)N3CC3)ccc2[N+](=O)[O-])cc1 [Compound 3031]	10
CC(OP(=O)(N1CC1)N1CC1)c1ccc([N+](=O)[O-])c(Oc2ccc(F)cc2)c1 (stereo not drawn) [Compound 2861]	20
CNC(=O)c1cccc(Oc2cc(COP(=O)(N3CC3)N3CC3)ccc2[N+](=O)[O-])c1 [Compound 2937]	2
CC(OP(=O)(N1CC1)N1CC1)c1cc(Oc2ccccc2)c([N+](=O)[O-])cc1F (stereo not drawn) [Compound 2846]	60
CC(OP(=O)(N1CC1)N1CC1)c1ccc([N+](=O)[O-])c(Oc2ccc(F)cc2F)c1 (stereo not drawn) [Compound 2863]	20
CC(OP(=O)(N1CC1)N1CC1)c1ccc([N+](=O)[O-])c(Oc2cccc(C(=O)N(C)c3ccccc3)c2)c1 (stereo not drawn) [Compound 2992]	4
CC(OP(=O)(N1CC1)N1CC1)c1ccc([N+](=O)[O-])c(Oc2ccc(C(F)(F)F)cc2)c1 (stereo not drawn) [Compound 3036]	4
CNC(=O)c1ccccc1Oc1cc(C(C)OP(=O)(N2CC2)N2CC2)ccc1[N+](=O)[O-] (stereo not drawn) [Compound 2910]	3500
CC(OP(=O)(N1CC1)N1CC1)c1ccc([N+](=O)[O-])c(Oc2ccc3cnn(C)c3c2)c1 (stereo not drawn) [Compound 2917]	20
O=C(c1cccc(Oc2cc(COP(=O)(N3CC3)N3CC3)ccc2[N+](=O)[O-])c1)N1CCCCC1 [Compound 2983]	4
CN(C)C(=O)c1ccccc1Oc1cc(COP(=O)(N2CC2)N2CC2)ccc1[N+](=O)[O-] [Compound 2938]	2500
C/C(=N\Oc1cc(C(C)OP(=O)(N2CC2)N2CC2)ccc1[N+](=O)[O-])c1ccccc1 (stereo not drawn) [Compound 2961]	2700
C/C(=N\Oc1cc(COP(=O)(N2CC2)N2CC2)ccc1[N+](=O)[O-])c1ccccc1 [Compound 2949]	400

Reference: US10766914B2, “DNA alkylating agents” (OBI PHARMA, INC., priority 2015, dated 2020)
